Reference: US20110027771A1, “METHODS AND COMPOSITIONS FOR CELL STABILIZATION” (Artemis Health, Inc., priority 2009, published 2011)

System: fetal cells
Assay: Fetal cell number in blood drawn into sodium heparin or EDTA tubes, digital PCR
Format: cell-based
Conditions: composition containing heparin compared to composition containing EDTA; processed within 2 hrs after blood draw; FIG. 1
Description: The number of fetal cells in solutions containing EDTA or heparin were compared (FIG. 1). Pre-procedural blood samples (10 ml per condition) were drawn into either sodium heparin tubes or EDTA tubes. Samples were processed within 2 hrs after blood draw. Briefly, whole blood samples were centrifuged to separate blood cells and plasma. Fetal gender was determined by digital PCR using plasma. Blood cell pellets were washed 5 times in PBS to remove cell-free DNA. DNA was then extracted from washed blood cells with a Qiagen column. The fetal cell number in samples with a male fetus was enumerated by digital PCR.

heparin
fetal cell stability: higher stability
